These are literature values, as cited in patent US7498354B2, “Pyrrolo[2,3-D]imidazoles for the treatment of hyperproliferative disorders” (OSI Pharmaceuticals, Inc., priority 2006, dated 2009).

Structures can show the parent of a compound that is named as a salt.

Series [1] has as its system MO7e human leukemia cells. The conditions noted are these: Kit ligand stimulation.
For series [2], the system named is MO7e human leukemia cells. The conditions noted are these: GM-CSF stimulation.

As to `Cc1ccc(NC(=O)c2ccc(CN3CCN(C)CC3)cc2)cc1Nc1nccc(-c2cccnc2)n1` [Gleevec, imatinib mesylate], in series [1], the “Kit ligand-stimulated growth of MO7e human leukemia cells” value was “inhibited” and the “apoptosis in Kit ligand-stimulated MO7e cells” value was “induces apoptosis”. In series [2], the “GM-CSF stimulated growth of MO7e human leukemia cells” value is on record as “not affected”.
